Test [1] deals with T1, CXCR4 (Homo sapiens, UniProt P61073). Briefly: Chemokine (CXCL12-AF647) binding inhibition assay, Jurkat cells expressing CXCR4. The note with it: CXCL12-AF647 25 ng/ml, read-out: IC50 CXCL-12 binding Jurkat. Here is the method:
Jurkat cells expressing CXCR4 were washed once with assay buffer (Hanks' balanced salt solution with 20 mM HEPES buffer and 0.2% bovine serum albumin, pH 7.4) and then incubated for 15 min at room temperature with the test compounds diluted in assay buffer at dose-dependent concentrations. Subsequently, CXCL12-AF647 (25 ng/ml) was added to the compound-incubated cells. The cells were incubated for 30 min at room temperature. Thereafter, the cells were washed twice in assay buffer, fixed in 1% paraformaldehyde in PBS, and analyzed on the FL4 channel of a FACSCalibur flow cytometer equipped with a 635-nm red diode laser (Becton Dickinson, San Jose, CA, USA).
The percentages of inhibition of CXCL12-AF647 binding were calculated according to the formula: [1−((MFI−MFINC)/(MFIPC−MFINC))]×100 where MFI is the mean fluorescence intensity of the cells incubated with CXCL 12-AF647 in the presence of the inhibitor, MFINC is the mean fluorescence intensity measured in the negative control (i.e., autofluorescence of unlabeled cells), and MFIPC is the mean fluorescence intensity of the positive control (i.e., cells exposed to CXCL12-AF647 alone).

For test [2], the target named is T2, BTK (Bruton tyrosine kinase) (Homo sapiens, UniProt Q06187).
T2 construct: GST or His (the text leaves open which); purchased Reaction Biology Europe GmbH Lot 012,11; host or cells: Sf9 insect cells or E. coli (not resolved)
T2 sequence (Q06187 whole entry): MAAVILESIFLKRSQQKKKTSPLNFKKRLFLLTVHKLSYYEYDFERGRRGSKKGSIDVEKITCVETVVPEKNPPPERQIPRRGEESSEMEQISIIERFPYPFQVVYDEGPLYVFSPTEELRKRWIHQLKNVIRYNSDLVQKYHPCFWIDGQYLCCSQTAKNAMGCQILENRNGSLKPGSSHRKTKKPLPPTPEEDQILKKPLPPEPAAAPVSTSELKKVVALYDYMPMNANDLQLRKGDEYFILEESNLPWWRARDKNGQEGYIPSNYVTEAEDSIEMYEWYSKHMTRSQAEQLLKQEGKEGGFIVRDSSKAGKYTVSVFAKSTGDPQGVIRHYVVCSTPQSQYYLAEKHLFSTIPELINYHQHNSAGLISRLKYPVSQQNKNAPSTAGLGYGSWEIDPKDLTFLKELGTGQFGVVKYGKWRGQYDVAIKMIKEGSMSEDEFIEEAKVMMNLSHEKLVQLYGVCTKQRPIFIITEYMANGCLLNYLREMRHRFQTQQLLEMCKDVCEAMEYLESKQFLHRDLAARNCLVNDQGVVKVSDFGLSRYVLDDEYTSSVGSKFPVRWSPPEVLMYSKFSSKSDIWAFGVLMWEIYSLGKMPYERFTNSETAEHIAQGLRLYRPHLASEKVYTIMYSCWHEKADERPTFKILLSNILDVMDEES
The experiment in a line: BTK screening assay (33PanQinase Activity Assay, radiometric). The test is classed as biochemical. The note with it: Inhibition of BTK, radiometric 33PanQinase Activity Assay, 3 μM ATP, 10 concentrations in singlicate, top 10 μM; read-out: 33PanQinase ® Radiometric IC50. The protocol:
Inhibition of BTK activity was evaluated using a radiometric protein kinase assay (33PanQinase® Activity Assay) to measure the activity of BTK (Bruton tyrosine kinase).
Kinase assays were performed in 96-well ScintiPlates™ from Perkin Elmer (Boston, MA, USA) in a 50 μL reaction volume. The reaction cocktail was pipetted in four steps in the following order: 10 μL of non-radioactive ATP solution (in H2O); 25 μL of assay buffer/[γ-^33P]-ATP mixture; 5 μL of compound test sample in 10% DMSO; 10 μL of enzyme/substrate mixture.
BTK kinase was expressed in Sf9 insect cells or in E. coli as recombinant GST-fusion proteins or His-tagged proteins, either as full-length or enzymatically active fragments from human cDNAs, and purified by either GSH-affinity chromatography or immobilized metal. Purity was examined by SDS-PAGE/Coomassie staining, and identity confirmed by mass spectroscopy.
The reaction cocktails were incubated at 30° C. for 60 minutes. The reaction was stopped with 50 μL of 2% (v/v) H3PO4, plates were aspirated and washed two times with 200 μL 0.9% (w/v) NaCl. Incorporation of ^33Pi (counting of “cpm”) was determined with a microplate scintillation counter (Microbeta, Wallac).
The median value of the counts in wells containing assay buffer without enzyme, and without test compound was defined as “low control.” This value reflects unspecific binding of radioactivity to the plate in the absence of a protein kinase but in the presence of the substrate. The median value of the counts in wells containing assay buffer without test compound was defined as the “high control,” i.e. full activity in the absence of any inhibitor. The difference between high and low control was taken as 100% activity. Residual activity (in %) was calculated using the following formula: Res. Activity (%)=100×[(cpm of compound-low control)/(high control-low control)].
The fitting method used was a least-squares fit.

In test [3] the target is T1, CXCR4. Briefly: Intracellular CXCL-12-induced calcium mobilization assay (FLIPR), U87.CXCR4 cells. The test is classed as cell-based. Also noted: expressed in transfected cells; host or cells: U87 (U87.CXCR4). The note with it: CXCL-12 25-50 ng/ml, read-out: IC50 CXCL-12 Ca2+ flux U87.CXCR4+. The protocol:
Intracellular calcium mobilization induced by chemokines or chemokine-derived peptides were evaluated using a calcium responsive fluorescent probe and a FLIPR system. The CXCR-4 transfected U87 cell line (U87.CXCR4) cells were seeded in gelatine-coated black-wall 96-well plates at 20,000 cells per well and incubated for 12 hours. Cells were then loaded with the fluorescent calcium probe Fluo-2 acetoxymethyl at 4 μM final concentration in assay buffer (Hanks' balanced salt solution with 20 mM HEPES buffer and 0.2% bovine serum albumin, pH 7.4) for 45 min at 37° C. The intracellular calcium mobilization induced by the CXCL-12 (25-50 ng/ml) was then measured at 37° C. by monitoring the fluorescence as a function of time in all the wells simultaneously using a fluorometric imaging plate reader (FLIPR Tetra, Molecular Devices).
A general note: Calcium assays in cells follow changes in intracellular calcium, usually with a dye or a luminescent sensor.

T1 sequence (P61073 whole entry): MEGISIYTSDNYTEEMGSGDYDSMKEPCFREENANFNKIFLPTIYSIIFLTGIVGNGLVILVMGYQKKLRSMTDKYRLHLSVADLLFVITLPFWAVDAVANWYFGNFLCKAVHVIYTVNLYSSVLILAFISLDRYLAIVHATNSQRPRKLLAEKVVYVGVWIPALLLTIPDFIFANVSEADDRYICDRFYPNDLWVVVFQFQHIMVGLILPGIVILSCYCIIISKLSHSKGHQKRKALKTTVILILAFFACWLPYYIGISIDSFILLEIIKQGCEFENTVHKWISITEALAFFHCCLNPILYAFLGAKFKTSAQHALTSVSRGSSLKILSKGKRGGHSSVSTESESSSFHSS

For orientation: IC50 means the concentration that gives 50% inhibition. For `Cc1cccnc1[C@H]1CCC[C@@H](c2ncccc2C)N1CCCNC(=O)[C@@H]1CC[C@@H](Nc2ncnc3[nH]cc(C(=O)c4ccc(Oc5ccccc5)cc4Cl)c23)CO1` [Compound I-20], the half-maximal inhibitory concentration (IC50) at CXCR4 [1] was 100 to 1000 nM; in test [2], 1 to 100 nM; on CXCR4 [3], above 2500 nM.

Regarding `Cc1cccnc1[C@H]1CC(COC(=O)[C@@H]2CC[C@@H](Nc3ncnc4[nH]cc(C(=O)c5ccc(Oc6ccccc6)cc5Cl)c34)CO2)C[C@@H](c2ncccc2C)N1CCCCN` (some centres unmarked) [Compound I-21], the IC50 on CXCR4 [1] was 1 to 100 nM; in test [2] it was 1 to 100 nM; on CXCR4 [3], 100 to 1000 nM.

Take `Cc1cccnc1[C@H]1CC(C(=O)OC[C@@H]2CC[C@@H](Nc3ncnc4[nH]cc(C(=O)c5ccc(Oc6ccccc6)cc5Cl)c34)CO2)C[C@@H](c2ncccc2C)N1CCCCN` (some centres unmarked) [Compound I-22]: the figures for the IC50 (at CXCR4 [1]; in test [2]; at CXCR4 [3]) were 1 to 100 nM, 1 to 100 nM and 100 to 1000 nM, respectively.

Turning to `Cc1cc(-c2ncnc3[nH]c(S(=O)(=O)NCCN4[C@@H](c5ncccc5C)CCC[C@H]4c4ncccc4C)cc23)ccc1CNC(=O)c1ccc(C(C)(C)C)cc1` [Compound I-26], the values for the half-inhibitory concentration (IC50) (at CXCR4 [1]; in test [2]; on CXCR4 [3]) were above 2500 nM, 1000 to 2500 nM and above 2500 nM, respectively.

Consider `Cc1cc(-c2ncnc3[nH]c(S(=O)(=O)NCCCN4[C@@H](c5ncccc5C)CCC[C@H]4c4ncccc4C)cc23)ccc1CNC(=O)c1ccc(C(C)(C)C)cc1` [Compound I-27], for which the values for the IC50 (at CXCR4 [1]; in test [2]; on CXCR4 [3]) were 100 to 1000 nM, 100 to 1000 nM and above 2500 nM, respectively.

In the case of `Cc1cc(-c2ncnc3[nH]c(S(=O)(=O)NCCCCN4[C@@H](c5ncccc5C)CCC[C@H]4c4ncccc4C)cc23)ccc1CNC(=O)c1ccc(C(C)(C)C)cc1` [Compound I-28], the figures for the 50% inhibitory concentration (IC50) (on CXCR4 [1]; in test [2]; on CXCR4 [3]) were 100 to 1000 nM, 1000 to 2500 nM and above 2500 nM, respectively.

For `Cc1cc(-c2ccnc(Nc3cnn(CCCCN4[C@@H](c5ncccc5C)CCC[C@H]4c4ncccc4C)c3)n2)ccc1CNC(=O)N1CC(OC(C)C)C1` [Compound I-29], the concentration for half-maximal inhibition (IC50) in test [2] is 1 to 100 nM; at CXCR4 [3], above 2500 nM.

Turning to `Cc1cccnc1[C@H]1CCC[C@@H](c2ncccc2C)N1CCCN1CCN(C(=O)c2ccc(-c3cc4c(-c5cccc(NC(=O)c6ccccc6)c5C)ncnc4[nH]3)cc2)CC1` [Compound I-30], the IC50 is 1 to 100 nM on CXCR4 [1], 100 to 1000 nM in test [2] and 1 to 100 nM at CXCR4 [3].

For the molecule `Cc1cccnc1[C@H]1CCC[C@@H](c2ncccc2C)N1CCCCN1CCN(C(=O)c2ccc(-c3cc4c(-c5cccc(NC(=O)c6ccccc6)c5C)ncnc4[nH]3)cc2)CC1` [Compound I-31], the IC50 lay in the range of 1 to 100 nM on CXCR4 [1], 100 to 1000 nM in test [2] and 1 to 100 nM at CXCR4 [3].

Regarding `Cc1cccnc1[C@H]1CCC[C@@H](c2ncccc2C)N1CCN1CCN(C(=O)c2ccc(-c3cc4c(-c5cccc(NC(=O)c6ccc(C(C)C)cc6)c5C)ncnc4[nH]3)cc2)CC1` [Compound I-32], the half-inhibitory concentration (IC50) at CXCR4 [1] is 1 to 100 nM; in test [2] it was 1 to 100 nM; at CXCR4 [3], above 2500 nM.

In the case of `Cc1cccnc1[C@H]1CCC[C@@H](c2ncccc2C)N1CCN1CCN(C(=O)c2ccc(-c3cc4c(-c5cccc(NC(=O)c6cccc(C(C)C)c6)c5C)ncnc4[nH]3)cc2)CC1` [Compound I-33], the IC50 at CXCR4 [1] lay in the range of 1 to 100 nM; in test [2] it was 100 to 1000 nM; at CXCR4 [3], 100 to 1000 nM.

In the case of `Cc1cccnc1[C@H]1CCC[C@@H](c2ncccc2C)N1CCN1CCN(C(=O)c2ccc(-c3cc4c(-c5cccc(NC(=O)c6ccc(C(F)(F)F)cc6)c5C)ncnc4[nH]3)cc2)CC1` [Compound I-34], the values for the IC50 (on CXCR4 [1]; in test [2]; on CXCR4 [3]) were 1 to 100 nM, 100 to 1000 nM and 100 to 1000 nM, respectively.

In the case of `Cc1cccnc1[C@H]1CCC[C@@H](c2ncccc2C)N1CCNC1CN(C(=O)c2ccc(-c3cc4c(-c5cccc(NC(=O)c6ccc(C(C)C)cc6)c5C)ncnc4[nH]3)cc2)C1` [Compound I-35], the IC50 (at CXCR4 [1]; in test [2]; on CXCR4 [3]) was 1 to 100 nM each time.

Turning to `Cc1cccnc1[C@H]1CCC[C@@H](c2ncccc2C)N1CCNC1CN(C(=O)c2ccc(-c3cc4c(-c5cccc(NC(=O)c6cccc(C(C)C)c6)c5C)ncnc4[nH]3)cc2)C1` [Compound I-36], the figures for the 50% inhibitory concentration (IC50) (at CXCR4 [1]; in test [2]; on CXCR4 [3]) were 1 to 100 nM, 1000 to 2500 nM and 100 to 1000 nM, respectively.

In the case of `Cc1cccnc1[C@H]1CCC[C@@H](c2ncccc2C)N1CCNC1CN(C(=O)c2ccc(-c3cc4c(-c5cccc(NC(=O)c6ccc(C(F)(F)F)cc6)c5C)ncnc4[nH]3)cc2)C1` [Compound I-37], the IC50 lay within 1 to 100 nM at CXCR4 [1], 100 to 1000 nM in test [2] and 1 to 100 nM at CXCR4 [3].

Regarding `Cc1cc(-c2ncnc3[nH]c(C(=O)NCCCN4[C@@H](c5ncccc5C)CCC[C@H]4c4ncccc4C)cc23)ccc1CNC(=O)c1ccc(C(C)C)cc1` [Compound I-38], the IC50 lay in the range of 1 to 100 nM at CXCR4 [1], 1 to 100 nM in test [2] and 100 to 1000 nM on CXCR4 [3].

`Cc1cc(-c2ncnc3[nH]c(C(=O)NCCCN4[C@@H](c5ncccc5C)CCC[C@H]4c4ncccc4C)cc23)ccc1CNC(=O)c1cccc(C(C)C)c1` [Compound I-39]: the half-maximal inhibitory concentration (IC50) is 1 to 100 nM at CXCR4 [1], 100 to 1000 nM in test [2] and above 2500 nM on CXCR4 [3].

Regarding `Cc1cc(-c2ncnc3[nH]c(C(=O)NCCCN4[C@@H](c5ncccc5C)CCC[C@H]4c4ncccc4C)cc23)ccc1CNC(=O)c1ccc(C(F)(F)F)cc1` [Compound I-40], the half-maximal inhibitory concentration (IC50) at CXCR4 [1] was 1 to 100 nM; in test [2], 1 to 100 nM; at CXCR4 [3], above 2500 nM.

Regarding `COC1CN(C(=O)NCc2ccc(-c3ccnc(Nc4cnn(CCN5[C@@H](c6ncccc6C)CCC[C@H]5c5ncccc5C)c4)n3)cc2C)C1` [Compound I-41], the concentration for half-maximal inhibition (IC50) on CXCR4 [1] is 1 to 100 nM; in test [2], 1 to 100 nM; at CXCR4 [3], above 2500 nM.

`Cc1cc(-c2ccnc(Nc3cnn(CCN4[C@@H](c5ncccc5C)CCC[C@H]4c4ncccc4C)c3)n2)ccc1CNC(=O)N1CC(OC(C)(C)C)C1` [Compound I-42]: the IC50 on CXCR4 [1] lay within 1 to 100 nM; in test [2], 1 to 100 nM; on CXCR4 [3], 100 to 1000 nM.

Consider `Cc1cc(-c2ccnc(Nc3cnn(CCN4[C@@H](c5ncccc5C)CCC[C@H]4c4ncccc4C)c3)n2)ccc1CNC(=O)N1CC(OC(F)(F)F)C1` [Compound I-43], for which the IC50 on CXCR4 [1] is 1 to 100 nM; in test [2], 1 to 100 nM; on CXCR4 [3] it was 100 to 1000 nM.

Turning to `Cc1cc(-c2ncnc3[nH]c(C(=O)NCCCCN4[C@@H](c5ncccc5C)CCC[C@H]4c4ncccc4C)cc23)ccc1CNC(=O)c1ccc(C(C)C)cc1` [Compound I-44], the half-inhibitory concentration (IC50) lay within 1 to 100 nM on CXCR4 [1], 1 to 100 nM in test [2] and 100 to 1000 nM at CXCR4 [3].

On to `Cc1cc(-c2ncnc3[nH]c(C(=O)NCCCCN4[C@@H](c5ncccc5C)CCC[C@H]4c4ncccc4C)cc23)ccc1CNC(=O)c1cccc(C(C)C)c1` [Compound I-45], for which the half-inhibitory concentration (IC50) lay within 1 to 100 nM at CXCR4 [1], 1 to 100 nM in test [2] and 1000 to 2500 nM on CXCR4 [3].

Values taken from patent US20250326753A1, “DUAL CXCR4-BTK INHIBITORS” (X4 Pharmaceuticals, Inc., priority 2022, published 2025).
